From patent US20250092088A1, “PEPTIDE COMPOUND PRODUCTION METHOD” (CHUBU UNIVERSITY EDUCATIONAL FOUNDATION, priority 2022, published 2025)

Test: TLC analysis of H-Ala-O-PG to evaluate polarity reduction by protecting groups
Format: physicochemical
Conditions: hexane/ethyl acetate=2/1, L-Ala with terminal carboxyl protected by PG (H-Ala-O-PG)
Description: As protecting groups for the terminal carboxyl groups of amino acid/peptide compounds, the silicon-containing hydrophobic substituents TAG1(Si), TAG2(Si), and TAG3(Si) synthesized in Examples 1 to 3, the conventionally known protecting group tBu group, and the previously mentioned TAGa group (alkoxybenzyl ester group) represented by the following formula, which is described in Non-Patent Literature 6 (Org. Process Res. Dev. 2019, Vol. 23, p. 2576-2581), were used to protect the terminal carboxyl of an amino acid (L-Ala), and their effects on polarity reduction were evaluated.

**Q.** With C[C@H](N)C(=O)OC(C)(C)C [tBu, reference compound] as the molecule, how does the Rf value read?
**A.** Its Rf value is 0.07.
